A word on the Ki: it is the equilibrium dissociation constant of an inhibitor or competing ligand from its target.

18 compounds from patent US9346815B2, “5-chloro-2-difluoromethoxyphenyl pyrazolopyrimidine compounds, compositions and methods of use thereof” (Genentech, Inc., priority 2014, dated 2016) can be followed below.

Like-named read-outs stand apart in the source and are kept apart here.

Assay [1] concerns the target isolated recombinant JAK2 kinase domain (Homo sapiens (Human), UniProt O60674). The assay is described as follows: JAK2 enzyme assay (Caliper LabChip, peptide phosphorylation). It counts as biochemical. Particulars: 25 μM ATP.
For assay [2], the target named is isolated recombinant JAK1 kinase domain (Homo sapiens (Human), UniProt P23458). The assay is described as follows: JAK1 enzyme assay (Caliper LabChip, peptide phosphorylation). It counts as biochemical. As to conditions: isolated recombinant JAK1 kinase domain, 25 μM ATP.
Sequence of isolated recombinant JAK1 kinase domain (P23458 875-1153): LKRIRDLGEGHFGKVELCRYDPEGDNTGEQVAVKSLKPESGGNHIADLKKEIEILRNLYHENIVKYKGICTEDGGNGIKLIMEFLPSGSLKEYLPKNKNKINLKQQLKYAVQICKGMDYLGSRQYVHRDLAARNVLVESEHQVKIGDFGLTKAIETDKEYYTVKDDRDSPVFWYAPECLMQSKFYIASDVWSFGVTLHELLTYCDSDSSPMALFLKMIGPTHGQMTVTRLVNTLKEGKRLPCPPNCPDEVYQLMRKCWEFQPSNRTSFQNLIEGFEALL
The test system of assay [3] is JAK1-dependent STAT6 phosphorylation downstream of IL-13 stimulation in TF-1 human erythroleukemia cells. Description: JAK1 pathway assay in TF-1 cells (IL-13-pSTAT6, MSD). It counts as cell-based. As to conditions: read-out: IL13-pSTAT6 EC50_TF-1. An outline of the steps:
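Inhibitors were added to TF-1 cells (GM-CSF-starved, serum-free) for 30 min or to BEAS-2B cells (complete medium) for 1 hr at 37° C. MSD detected pSTAT6.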

Sequence of isolated recombinant JAK2 kinase domain (O60674 849-1124): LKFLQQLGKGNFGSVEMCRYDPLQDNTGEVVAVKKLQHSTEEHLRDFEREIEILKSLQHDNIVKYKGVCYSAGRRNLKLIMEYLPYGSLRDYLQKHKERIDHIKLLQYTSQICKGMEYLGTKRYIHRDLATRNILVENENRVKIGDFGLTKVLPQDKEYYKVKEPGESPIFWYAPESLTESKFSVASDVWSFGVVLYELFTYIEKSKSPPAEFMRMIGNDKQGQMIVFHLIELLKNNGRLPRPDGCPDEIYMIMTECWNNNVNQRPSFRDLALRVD

For `CN(C)C[C@@H]1CCCN(C(=O)Cn2cc(NC(=O)c3cnn4cccnc34)c(-c3cc(Cl)ccc3OC(F)F)n2)C1` [Example 72, N-[3-[5-chloro-2-(difluoromethoxy)phenyl]-1-[2-[(3S)-3-[(dimethylamino)methyl]-1-piperidyl]-2-oxo-ethyl]pyrazol-4-yl]pyrazolo[1,5-a]pyrimidine-3-carboxamide], the inhibitory constant (Ki) in assay [1] was determined as 4.07 nM; in assay [2] it was 1.17 nM. Further, the EC50 in assay [3] (Homo sapiens, TF-1, TF-1 cells) stood at 7.2 nM.
Turning to `CN(Cc1ccc(F)c(Br)c1)C1CCN(C(=O)Cn2cc(NC(=O)c3cnn4cccnc34)c(-c3cc(Cl)ccc3OC(F)F)n2)CC1` [Example 131, N-[1-[2-[4-[(3-bromo-4-fluoro-phenyl)methyl-methyl-amino]-1-piperidyl]-2-oxo-ethyl]-3-[5-chloro-2-(difluoromethoxy)phenyl]pyrazol-4-yl]pyrazolo[1,5-a]pyrimidine-3-carboxamide], the Ki in assay [1] came out at 2.68 nM; in assay [2], 1.07 nM. In addition, the EC50 in assay [3] (Homo sapiens, TF-1, TF-1 cells) is 23.7 nM.
Regarding `CN1CCC2(CC1)CN(C(=O)Cn1cc(NC(=O)c3cnn4cccnc34)c(-c3cc(Cl)ccc3OC(F)F)n1)C2` [Example 216, N-[3-[5-chloro-2-(difluoromethoxy)phenyl]-1-[2-(7-methyl-2,7-diazaspiro[3.5]nonan-2-yl)-2-oxo-ethyl]pyrazol-4-yl]pyrazolo[1,5-a]pyrimidine-3-carboxamide], the values for the inhibitory constant (Ki) in assay [1] and in assay [2] were 1.82 nM and 1.13 nM, respectively. Also, in assay [3] (Homo sapiens, TF-1, TF-1 cells), the EC50 came out at 12.5 nM.
Regarding `O=C(Nc1cn(CC(=O)N2C[C@H]3CN(CCCN4C(=O)Cc5ccccc54)C[C@H]3C2)nc1-c1cc(Cl)ccc1OC(F)F)c1cnn2cccnc12` [Example 54, N-[1-[2-[(3aR,6aS)-2-[3-(2-oxoindolin-1-yl)propyl]-1,3,3a,4,6,6a-hexahydropyrrolo[3,4-c]pyrrol-5-yl]-2-oxo-ethyl]-3-[5-chloro-2-(difluoromethoxy)phenyl]pyrazol-4-yl]pyrazolo[1,5-a]pyrimidine-3-carboxamide], the Ki in assay [1] was 0.67 nM; in assay [2] it was 0.76 nM. Besides, the EC50 in assay [3] (Homo sapiens, TF-1, TF-1 cells) is 15.1 nM.
`CC(C)Oc1ccc(CN(C)C2CCN(C(=O)Cn3cc(NC(=O)c4cnn5cccnc45)c(-c4cc(Cl)ccc4OC(F)F)n3)CC2)cc1` [Example 125, N-[3-[5-chloro-2-(difluoromethoxy)phenyl]-1-[2-[4-[(4-isopropoxyphenyl)methyl-methyl-amino]-1-piperidyl]-2-oxo-ethyl]pyrazol-4-yl]pyrazolo[1,5-a]pyrimidine-3-carboxamide]: the Ki was found to be 2.2 nM in assay [1] and 0.61 nM in assay [2]. Also, the EC50 in assay [3] (Homo sapiens, TF-1, TF-1 cells) is 11.7 nM.
For `CCN1CC2CN(C(=O)Cn3cc(NC(=O)c4c(N)nn5cccnc45)c(-c4cc(Cl)ccc4OC(F)F)n3)CC2C1` (stereo not drawn) [Example 11, 2-amino-N-[3-[5-chloro-2-(difluoromethoxy)phenyl]-1-[2-(2-ethyl-1,3,3a,4,6,6a-hexahydropyrrolo[3,4-c]pyrrol-5-yl)-2-oxo-ethyl]pyrazol-4-yl]pyrazolo[1,5-a]pyrimidine-3-carboxamide], the Ki in assay [1] worked out at 0.3 nM; in assay [2], 1.05 nM. Besides, the EC50 in assay [3] (Homo sapiens, TF-1, TF-1 cells) worked out at 11.8 nM.
As for `CN1CCCN(C(=O)Cn2cc(NC(=O)c3cnn4cccnc34)c(-c3cc(Cl)ccc3OC(F)F)n2)CC1` [Example 239, N-[3-[5-chloro-2-(difluoromethoxy)phenyl]-1-[2-(4-methyl-1,4-diazepan-1-yl)-2-oxo-ethyl]pyrazol-4-yl]pyrazolo[1,5-a]pyrimidine-3-carboxamide], the values for the Ki in assay [1] and in assay [2] were 2.38 nM and 1.55 nM, respectively. Also, the EC50 in assay [3] (Homo sapiens, TF-1, TF-1 cells) is 8.6 nM.
On the same counts, the results for `CN(CCOc1ccc(Br)cc1)C1CCN(C(=O)Cn2cc(NC(=O)c3cnn4cccnc34)c(-c3cc(Cl)ccc3OC(F)F)n2)CC1` [Example 104, N-[1-[2-[4-[2-(4-bromophenoxy)ethyl-methyl-amino]-1-piperidyl]-2-oxo-ethyl]-3-[5-chloro-2-(difluoromethoxy)phenyl]pyrazol-4-yl]pyrazolo[1,5-a]pyrimidine-3-carboxamide] are 2.11 nM, 0.93 nM and 20.2 nM.
On the same counts, the results for `COCCCN1C[C@@H]2CN(C(=O)Cn3cc(NC(=O)c4cnn5cccnc45)c(-c4cc(Cl)ccc4OC(F)F)n3)C[C@@H]2C1` [Example 38, N-[1-[2-[(3aR,6aS)-2-(3-methoxypropyl)-1,3,3a,4,6,6a-hexahydropyrrolo[3,4-c]pyrrol-5-yl]-2-oxo-ethyl]-3-[5-chloro-2-(difluoromethoxy)phenyl]pyrazol-4-yl]pyrazolo[1,5-a]pyrimidine-3-carboxamide] are 0.78 nM, 0.88 nM and 8.5 nM.
Turning to `Nc1nn2cccnc2c1C(=O)Nc1cn(CC(=O)N2CCC(N3CC[C@H](O)C3)CC2)nc1-c1cc(Cl)ccc1OC(F)F` [Example 77, 2-amino-N-[3-[5-chloro-2-(difluoromethoxy)phenyl]-1-[2-[4-[(3S)-3-hydroxypyrrolidin-1-yl]-1-piperidyl]-2-oxo-ethyl]pyrazol-4-yl]pyrazolo[1,5-a]pyrimidine-3-carboxamide], the figures for the Ki in assay [1] and in assay [2] were 0.51 nM and 0.6 nM, respectively. The EC50 in assay [3] (Homo sapiens, TF-1, TF-1 cells) was found to be 210 nM.
As to `CN(CCc1ccc(C(F)(F)F)cc1)C1CCN(C(=O)Cn2cc(NC(=O)c3cnn4cccnc34)c(-c3cc(Cl)ccc3OC(F)F)n2)CC1` [Example 97, N-[3-[5-chloro-2-(difluoromethoxy)phenyl]-1-[2-[4-[methyl-[2-[4-(trifluoromethyl)phenyl]ethyl]amino]-1-piperidyl]-2-oxo-ethyl]pyrazol-4-yl]pyrazolo[1,5-a]pyrimidine-3-carboxamide], the Ki was determined as 1.97 nM in assay [1] and 1.16 nM in assay [2]. In addition, the EC50 in assay [3] (Homo sapiens, TF-1, TF-1 cells) stood at 187 nM.
Turning to `O=C(Nc1sc(-c2ccc(CN3CC(F)C3)cc2)nc1-c1cc(Cl)ccc1OC(F)F)c1cnn2cccnc12` [Example 256, N-[4-[5-chloro-2-(difluoromethoxy)phenyl]-2-[4-[(3-fluoroazetidin-1-yl)methyl]phenyl]thiazol-5-yl]pyrazolo[1,5-a]pyrimidine-3-carboxamide], the inhibitory constant (Ki) is 0.95 nM in assay [1] and 1.31 nM in assay [2]. The EC50 in assay [3] (Homo sapiens, TF-1, TF-1 cells) was found to be 92 nM.
For `CN1C[C@@H]2CN(C(=O)Cn3cc(NC(=O)c4cnn5cccnc45)c(-c4cc(Cl)ccc4OC(F)F)n3)C[C@]2(c2ccccc2)C1` [Example 44, N-[1-[2-[(3aR,6aR)-2-methyl-3a-phenyl-3,4,6,6a-tetrahydro-1H-pyrrolo[3,4-c]pyrrol-5-yl]-2-oxo-ethyl]-3-[5-chloro-2-(difluoromethoxy)phenyl]pyrazol-4-yl]pyrazolo[1,5-a]pyrimidine-3-carboxamide], the Ki came out at 0.22 nM in assay [1] and 0.54 nM in assay [2]. The EC50 in assay [3] (TF-1 cells) was 6.7 nM.
Turning to `CC(C)(O)CCN1C[C@@H]2CN(C(=O)Cn3cc(NC(=O)c4cnn5cccnc45)c(-c4cc(Cl)ccc4OC(F)F)n3)C[C@@H]2C1` [Example 50, N-[1-[2-[(3aR,6aS)-2-(3-hydroxy-3-methyl-butyl)-1,3,3a,4,6,6a-hexahydropyrrolo[3,4-c]pyrrol-5-yl]-2-oxo-ethyl]-3-[5-chloro-2-(difluoromethoxy)phenyl]pyrazol-4-yl]pyrazolo[1,5-a]pyrimidine-3-carboxamide], the Ki in assay [1] was determined as 0.74 nM; in assay [2] it was 0.99 nM. In addition, the EC50 in assay [3] (Homo sapiens, TF-1, TF-1 cells) worked out at 32 nM.
In the case of `CN(CC1Oc2ccccc2O1)C1CCN(C(=O)Cn2cc(NC(=O)c3cnn4cccnc34)c(-c3cc(Cl)ccc3OC(F)F)n2)CC1` [Example 112, N-[1-[2-[4-[1,3-benzodioxol-2-ylmethyl(methyl)amino]-1-piperidyl]-2-oxo-ethyl]-3-[5-chloro-2-(difluoromethoxy)phenyl]pyrazol-4-yl]pyrazolo[1,5-a]pyrimidine-3-carboxamide], the Ki in assay [1] was 1.01 nM; in assay [2], 0.45 nM. In addition, the EC50 in assay [3] (Homo sapiens, TF-1, TF-1 cells) amounted to 96.3 nM.
For `CN1C[C@@H]2CN(Cc3nc(-c4cc(Cl)ccc4OC(F)F)c(NC(=O)c4cnn5cccnc45)s3)C[C@@H]2C1` [Example 262, N-[2-[[(3aR,6aS)-2-methyl-1,3,3a,4,6,6a-hexahydropyrrolo[3,4-c]pyrrol-5-yl]methyl]-4-[5-chloro-2-(difluoromethoxy)phenyl]thiazol-5-yl]pyrazolo[1,5-a]pyrimidine-3-carboxamide], in that order: 1.73 nM, 5.84 nM and 62.7 nM.
With `O=C(Nc1cn(CC(=O)N2C[C@H]3CN(CC4CCOCC4)C[C@H]3C2)nc1-c1cc(Cl)ccc1OC(F)F)c1cnn2cccnc12` [Example 26, N-[1-[2-[(3aR,6aS)-2-(tetrahydropyran-4-ylmethyl)-1,3,3a,4,6,6a-hexahydropyrrolo[3,4-c]pyrrol-5-yl]-2-oxo-ethyl]-3-[5-chloro-2-(difluoromethoxy)phenyl]pyrazol-4-yl]pyrazolo[1,5-a]pyrimidine-3-carboxamide], the results for the Ki in assay [1] and in assay [2] were 0.94 nM and 0.77 nM, respectively. Besides, the EC50 in assay [3] (Homo sapiens, TF-1, TF-1 cells) was found to be 6.2 nM.
In the case of `CN1CCCC(n2cc(NC(=O)c3c(N)nn4cccnc34)c(-c3cc(Cl)ccc3OC(F)F)n2)CC1` (stereo not drawn) [Example 172, 2-amino-N-[3-[5-chloro-2-(difluoromethoxy)phenyl]-1-(1-methylazepan-4-yl)pyrazol-4-yl]pyrazolo[1,5-a]pyrimidine-3-carboxamide], the Ki was found to be 0.15 nM in assay [1] and 0.88 nM in assay [2]. The EC50 in assay [3] (Homo sapiens, TF-1, TF-1 cells) turned out to be 15.9 nM.
